Measurements: article PMC3256935 (Journal of Medicinal Chemistry, 2011)

Target: T1, TbNMT (Trypanosoma brucei brucei, UniProt Q388H8)
T1 sequence (Q388H8 1-446): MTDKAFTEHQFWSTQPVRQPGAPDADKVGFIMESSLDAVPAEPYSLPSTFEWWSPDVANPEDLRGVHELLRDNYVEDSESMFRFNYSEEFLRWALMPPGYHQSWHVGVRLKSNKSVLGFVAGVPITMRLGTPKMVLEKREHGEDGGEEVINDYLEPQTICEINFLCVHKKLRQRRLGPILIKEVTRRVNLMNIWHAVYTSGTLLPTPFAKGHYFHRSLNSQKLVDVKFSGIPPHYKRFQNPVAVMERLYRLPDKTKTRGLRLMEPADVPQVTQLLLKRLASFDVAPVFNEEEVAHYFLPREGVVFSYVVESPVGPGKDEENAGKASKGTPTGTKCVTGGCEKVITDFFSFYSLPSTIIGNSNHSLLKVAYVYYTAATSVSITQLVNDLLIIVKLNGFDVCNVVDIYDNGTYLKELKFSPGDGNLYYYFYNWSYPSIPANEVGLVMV
Assay: biochemical

Cc1nn(C)c(C)c1NCc1ccc(Br)cc1 [Compound 21]
IC50: > 100 µM
